Data taken from ChEMBL document CHEMBL3044604, “Synthesis of some substituted furan-2(5H)-ones and derived quinoxalinones as potential anti-microbial and anti-cancer agents” (Med Chem Res, 2011).
pIC50: −log10 of the molar value. ≈ marks a conversion by molar mass, not a printed value.

How the values were obtained:
Staphylococcus aureus [1] = test: Antibacterial activity against Staphylococcus aureus ATCC 6538 at 1 mg/ml after 24 hr by agar cup diffusion method; format: functional; conditions: ATCC 6538, 24 h, read-out: DIZ
Staphylococcus aureus [2] = test: Antibacterial activity against Staphylococcus aureus ATCC 6538 after 48 hr by two fold serial dilution method; format: functional; conditions: ATCC 6538, 48 h
Staphylococcus aureus [3] = test: Antibacterial activity against Staphylococcus aureus ATCC 6538 incubated for 48 hr followed by subculturing measured after 18 hr; format: functional
Pseudomonas aeruginosa [4] = test: Antibacterial activity against Pseudomonas aeruginosa ATCC 9027 at 1 mg/ml after 24 hr by agar cup diffusion method; format: functional; conditions: ATCC 9027, 24 h, read-out: DIZ
Candida albicans [5] = test: Antifungal activity against Candida albicans ATCC 10231 at 1 mg/ml after 24 hr by agar cup diffusion method; format: functional; conditions: ATCC 10231, 24 h, read-out: DIZ
[6] = Inhibition of Marthasterias glacialis CDK1/cyclin B using histone H1 as substrate and [gamma32P]ATP after 10 min by scintillation counting
[7] = target: Cyclin-dependent kinase 5/CDK5 activator 1 (Homo sapiens, UniProt Q00535); test: Inhibition of CDK5/p25 (unknown origin); format: protein-complex assay
Sequence of Cyclin-dependent kinase 5/CDK5 activator 1 (Q00535 whole entry): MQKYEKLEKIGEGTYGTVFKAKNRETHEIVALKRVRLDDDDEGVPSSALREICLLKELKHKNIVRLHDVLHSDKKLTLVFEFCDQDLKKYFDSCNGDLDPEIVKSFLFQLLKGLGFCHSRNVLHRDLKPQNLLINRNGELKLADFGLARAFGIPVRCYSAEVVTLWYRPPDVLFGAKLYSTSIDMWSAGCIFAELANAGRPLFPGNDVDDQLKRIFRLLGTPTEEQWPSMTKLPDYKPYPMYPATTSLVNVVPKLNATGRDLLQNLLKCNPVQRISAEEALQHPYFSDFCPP
Sequence of Cyclin-dependent kinase 5/CDK5 activator 1 (Q15078 whole entry, further chain): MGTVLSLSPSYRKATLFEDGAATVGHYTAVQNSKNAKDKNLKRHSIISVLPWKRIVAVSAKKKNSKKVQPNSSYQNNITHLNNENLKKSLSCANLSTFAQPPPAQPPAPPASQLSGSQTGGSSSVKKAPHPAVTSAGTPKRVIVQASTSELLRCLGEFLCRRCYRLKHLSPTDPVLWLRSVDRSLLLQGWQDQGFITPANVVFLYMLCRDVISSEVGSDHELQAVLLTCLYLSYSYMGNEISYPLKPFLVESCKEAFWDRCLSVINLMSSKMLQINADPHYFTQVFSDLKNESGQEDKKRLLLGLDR

[8] = target: Glycogen synthase kinase-3 (Homo sapiens, UniProt P49840+P49841); test: Inhibition of GSK3alpha/beta (unknown origin); format: protein assay
Escherichia coli [9] = test: Antibacterial activity against Escherichia coli NCTC 10418 at 1 mg/ml after 24 hr by agar cup diffusion method; format: functional; conditions: NCTC 10418, 24 h, read-out: DIZ
Escherichia coli [10] = test: Antibacterial activity against Escherichia coli NCTC 10418 incubated for 48 hr followed by subculturing measured after 18 hr; format: functional
Pseudomonas aeruginosa [11] = test: Antibacterial activity against Pseudomonas aeruginosa ATCC 9027 incubated for 48 hr followed by subculturing measured after 18 hr; format: functional
Escherichia coli [12] = test: Antibacterial activity against Escherichia coli NCTC 10418 after 48 hr by two-fold serial dilution method; format: functional; conditions: NCTC 10418, 48 h
Pseudomonas aeruginosa [13] = test: Antibacterial activity against Pseudomonas aeruginosa ATCC 9027 after 48 hr by two-fold serial dilution method; format: functional; conditions: ATCC 9027, 48 h
Candida albicans [14] = test: Antifungal activity against Candida albicans ATCC 10231 incubated for 48 hr followed by subculturing measured after 18 hr; format: functional
Candida albicans [15] = test: Antifungal activity against Candida albicans ATCC 10231 after 48 hr by two-fold serial dilution method; format: functional; conditions: ATCC 10231, 48 h

Structure (SMILES) | zone of inhibition at 1000 µg/mL (Staphylococcus aureus [1]) | MIC (Staphylococcus aureus [2]) | MBC (Staphylococcus aureus [3]) | zone of inhibition at 1000 µg/mL (Pseudomonas aeruginosa [4]) | zone of inhibition at 1000 µg/mL (Candida albicans [5]) | pIC50 [6] | pIC50 [7] | IC50 [8] | zone of inhibition at 1000 µg/mL (Escherichia coli [9]) | MBC (Escherichia coli [10]) | MBC (Pseudomonas aeruginosa [11]) | MIC (Escherichia coli [12]) | MIC (Pseudomonas aeruginosa [13]) | MFC (Candida albicans [14]) | MIC (Candida albicans [15])
O=c1[nH]c2ccccc2nc1/C(Cl)=C/c1ccc(Cl)cc1 | 25 mm | 15.6 µg/mL (≈ 49.2 µM) | 125 µg/mL (≈ 394 µM) | 15 mm | 17 mm | < 5.00 | < 5.00 | > 10 µM | – | – | – | – | – | – | –
O=C1OC(c2cn(-c3ccccc3)nc2-c2ccccc2)C(Br)=C1O (centres undefined) | – | – | – | 19 mm | 16.5 mm | < 5.00 | < 5.00 | > 10 µM | 19 mm | 250 µg/mL (≈ 629 µM) | 125 µg/mL (≈ 315 µM) | 62.5 µg/mL (≈ 157 µM) | 62.5 µg/mL (≈ 157 µM) | – | –
Cc1nn(-c2ccccc2)c(C)c1/C=C(\Br)C(=O)O | – | – | – | 20 mm | – | < 5.00 | < 5.00 | > 10 µM | 19 mm | 125 µg/mL (≈ 389 µM) | 62.5 µg/mL (≈ 195 µM) | 31.2 µg/mL (≈ 97.3 µM) | 31.2 µg/mL (≈ 97.3 µM) | – | –
O=C1OC(c2ccc(Cl)cc2)C(Br)=C1O (centres undefined) | 20 mm | 62.5 µg/mL (≈ 216 µM) | 150 µg/mL (≈ 518 µM) | – | 21 mm | < 5.00 | < 5.00 | > 10 µM | 20 mm | 125 µg/mL (≈ 432 µM) | – | 31.2 µg/mL (≈ 108 µM) | – | 62.5 µg/mL (≈ 216 µM) | 31.2 µg/mL (≈ 108 µM)
O=C1OC(c2cn(-c3ccccc3)nc2-c2ccc(Br)cc2)C(Br)=C1O (centres undefined) | 18 mm | 125 µg/mL (≈ 263 µM) | 250 µg/mL (≈ 525 µM) | – | 16 mm | < 5.00 | < 5.00 | > 10 µM | 17 mm | – | – | – | – | – | –
COc1ccc(C2OC(=O)C(O)=C2I)cc1OC (centres undefined) | – | – | – | – | 17.5 mm | < 5.00 | < 5.00 | > 10 µM | – | – | – | – | – | – | –
O=C(COC1=C(Br)C(c2ccccc2)OC1=O)NCc1ccccc1 (centres undefined) | 23 mm | 7.81 µg/mL (≈ 19.4 µM) | 15.6 µg/mL (≈ 38.8 µM) | 25 mm | 17 mm | < 5.00 | < 5.00 | > 10 µM | 24 mm | 15.6 µg/mL (≈ 38.8 µM) | 31.2 µg/mL (≈ 77.7 µM) | 7.81 µg/mL (≈ 19.4 µM) | 7.81 µg/mL (≈ 19.4 µM) | – | –
O=C1OC(c2ccccc2)C(I)=C1O (centres undefined) | – | – | – | – | 20.5 mm | < 5.00 | < 5.00 | > 10 µM | – | – | – | – | – | 125 µg/mL (≈ 414 µM) | 62.5 µg/mL (≈ 207 µM)
Clc1ccccc1C(c1ccccc1)(c1ccccc1)n1ccnc1 [CLOTRIMAZOLE] | – | – | – | – | 28 mm | – | – | – | – | – | – | – | – | 15.6 µg/mL (≈ 45.3 µM) | 7.81 µg/mL (≈ 22.6 µM)
O=C1OC(c2ccc(Cl)cc2)C(I)=C1O (centres undefined) | – | – | – | – | 17 mm | < 5.00 | < 5.00 | > 10 µM | – | – | – | – | – | – | –
Cc1nn(-c2ccccc2)c(C)c1C1OC(=O)C(O)=C1Cl (centres undefined) | – | – | – | – | 16.5 mm | < 5.00 | < 5.00 | > 10 µM | – | – | – | – | – | – | –
O=c1[nH]c2ccccc2nc1/C(I)=C/c1ccccc1 | – | – | – | – | 16 mm | < 5.00 | < 5.00 | > 10 µM | – | – | – | – | – | – | –
O=C(O)C(=O)/C=C/c1cn(-c2ccccc2)nc1-c1ccc(Br)cc1 | – | – | – | 13 mm | 21 mm | < 5.00 | < 5.00 | > 10 µM | 19 mm | > 500 µg/mL | – | 62.5 µg/mL (≈ 157 µM) | – | 31.2 µg/mL (≈ 78.7 µM) | 7.81 µg/mL (≈ 19.7 µM)
O=C(O)/C(Br)=C/c1cn(-c2ccccc2)nc1-c1ccc(Br)cc1 | 33 mm | 31.2 µg/mL (≈ 69.7 µM) | 62.5 µg/mL (≈ 139 µM) | 18 mm | 15 mm | < 5.00 | < 5.00 | > 10 µM | 17 mm | – | 500 µg/mL (≈ 1120 µM) | – | 250 µg/mL (≈ 558 µM) | – | –
O=c1[nH]c2ccccc2nc1/C(I)=C/c1ccc(Cl)cc1 | – | – | – | 16.5 mm | – | < 5.00 | < 5.00 | > 10 µM | 15 mm | – | – | – | – | – | –
Cc1nn(-c2ccccc2)c(C)c1C1OC(=O)C(O)=C1Br (centres undefined) | 19 mm | 62.5 µg/mL (≈ 179 µM) | 125 µg/mL (≈ 358 µM) | – | 17 mm | < 5.00 | < 5.00 | > 10 µM | 17 mm | – | – | – | – | – | –
COc1ccc(-c2nn(-c3ccccc3)cc2/C=C/C(=O)C(=O)O)cc1 | 19 mm | 125 µg/mL (≈ 359 µM) | > 500 µg/mL | 13 mm | 20 mm | < 5.00 | < 5.00 | > 10 µM | 17 mm | – | – | – | – | 125 µg/mL (≈ 359 µM) | 31.2 µg/mL (≈ 89.7 µM)
CC1(C)S[C@@H]2[C@H](NC(=O)[C@H](N)c3ccccc3)C(=O)N2[C@H]1C(=O)O [AMPICILLIN] | 40 mm | 3.9 µg/mL (≈ 11.2 µM) | 15.6 µg/mL (≈ 44.7 µM) | – | – | – | – | – | 26 mm | 31.2 µg/mL (≈ 89.4 µM) | 250 µg/mL (≈ 715 µM) | 7.81 µg/mL (≈ 22.4 µM) | 125 µg/mL (≈ 358 µM) | – | –
O=C(O)C(=O)/C=C/c1cn(-c2ccccc2)nc1-c1ccccc1 | – | – | – | 12 mm | 21 mm | < 5.00 | < 5.00 | > 10 µM | 19 mm | 125 µg/mL (≈ 393 µM) | – | 31.2 µg/mL (≈ 98.2 µM) | – | 125 µg/mL (≈ 393 µM) | 31.2 µg/mL (≈ 98.2 µM)
O=C1OC(c2ccccc2)C(Br)=C1O (centres undefined) | 23 mm | 62.5 µg/mL (≈ 245 µM) | > 500 µg/mL | 13.5 mm | 20.5 mm | < 5.00 | < 5.00 | > 10 µM | 21 mm | 250 µg/mL (≈ 980 µM) | – | 62.5 µg/mL (≈ 245 µM) | – | 62.5 µg/mL (≈ 245 µM) | 31.2 µg/mL (≈ 123 µM)
COc1ccc(-c2nn(-c3ccccc3)cc2C2OC(=O)C(O)=C2Br)cc1 (centres undefined) | – | – | – | – | 15 mm | < 5.00 | < 5.00 | > 10 µM | – | – | – | – | – | – | –
Cc1nn(-c2ccccc2)c(C)c1/C=C(\I)c1nc2ccccc2[nH]c1=O | – | – | – | 17.5 mm | – | < 5.00 | < 5.00 | > 10 µM | 20 mm | 250 µg/mL (≈ 534 µM) | – | 62.5 µg/mL (≈ 133 µM) | – | – | –
Cc1nn(-c2ccccc2)c(C)c1C1OC(=O)C(O)=C1I (centres undefined) | 19 mm | 31.2 µg/mL (≈ 78.9 µM) | 62.5 µg/mL (≈ 158 µM) | – | 17.5 mm | < 5.00 | < 5.00 | > 10 µM | – | – | – | – | – | – | –
